In ChEMBL document CHEMBL5257113, “Development of versatile solid-phase methods for syntheses of PROTACs with diverse E3 ligands” (Bioorg Med Chem, 2023):
The source made the active and inactive calls. No cut-off for these calls is given here.

Tests used:
[1] = target: von Hippel-Lindau disease tumor suppressor/Bromodomain-containing protein 4 (Homo sapiens) (UniProt O60885+P40337); experiment: Protac activity at VHL/BRD4 in human MCF7 cells assessed as induction of BRD4 degradation at 10 uM measured after 24 hrs by Western blotting analysis; format: cell-based
Sequence of von Hippel-Lindau disease tumor suppressor/Bromodomain-containing protein 4 (Homo sapiens) (P40337 whole entry, looked up, other chains not shown): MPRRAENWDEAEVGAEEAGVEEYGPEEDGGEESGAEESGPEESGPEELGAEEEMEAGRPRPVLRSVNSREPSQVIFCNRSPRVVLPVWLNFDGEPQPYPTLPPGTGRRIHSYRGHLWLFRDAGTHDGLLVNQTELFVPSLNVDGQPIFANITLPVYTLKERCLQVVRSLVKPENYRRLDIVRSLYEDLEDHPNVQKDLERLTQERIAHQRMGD

[2] = target: E3 ubiquitin-protein ligase XIAP/Bromodomain-containing protein 4 (Homo sapiens) (UniProt P98170+O60885); experiment: Protac activity at IAP/BRD4 in human SK-MEL-28 cells assessed as induction of BRD4 degradation at 0.1 to 10 uM measured after 24 hrs by Western blotting analysis; format: cell-based; settings: dose 0.1-10 µM
Sequence of E3 ubiquitin-protein ligase XIAP/Bromodomain-containing protein 4 (Homo sapiens) (P98170 whole entry, looked up, other chains not shown): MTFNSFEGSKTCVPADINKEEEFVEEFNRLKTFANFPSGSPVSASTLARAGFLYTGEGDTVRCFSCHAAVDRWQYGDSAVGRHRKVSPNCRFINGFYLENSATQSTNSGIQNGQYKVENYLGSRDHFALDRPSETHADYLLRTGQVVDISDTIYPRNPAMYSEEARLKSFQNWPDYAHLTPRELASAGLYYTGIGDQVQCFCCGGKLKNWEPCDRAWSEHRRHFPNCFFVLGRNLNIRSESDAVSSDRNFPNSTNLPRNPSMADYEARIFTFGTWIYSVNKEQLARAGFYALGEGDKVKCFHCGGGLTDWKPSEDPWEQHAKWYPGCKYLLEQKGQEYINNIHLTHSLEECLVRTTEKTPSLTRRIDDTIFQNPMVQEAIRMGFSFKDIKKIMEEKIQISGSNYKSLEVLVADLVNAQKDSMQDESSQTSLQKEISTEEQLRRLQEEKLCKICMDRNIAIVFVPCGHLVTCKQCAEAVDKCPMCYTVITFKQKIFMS

Row | Structure (SMILES) | Activity [1] | Activity [2]
1 | CC1=C(C)C2C(c3ccc(Cl)cc3)=N[C@@H](CC(=O)NCCOCCOCCNC(=O)CCCC(=O)N[C@H](C(=O)N3C[C@H](O)C[C@H]3C(=O)NCc3ccc(-c4scnc4C)cc3)C(C)(C)C)c3nnc(C)n3C2S1 (some centres undefined) | inactive | 
2 | CC1=C(C)C2C(c3ccc(Cl)cc3)=N[C@@H](CC(=O)NCCCNC(=O)CCCC(=O)N[C@H](C(=O)N3C[C@H](O)C[C@H]3C(=O)NCc3ccc(-c4scnc4C)cc3)C(C)(C)C)c3nnc(C)n3C2S1 (some centres undefined) | Active | 
3 | CN[C@@H](C)C(=O)N[C@H](C(=O)N1CCC[C@H]1c1nc(C(=O)c2cccc(OCC(=O)NCCOCCOCCOCCNC(=O)C[C@@H]3N=C(c4ccc(Cl)cc4)c4c(sc(C)c4C)-n4c(C)nnc43)c2)cs1)C1CCCCC1 |  | Active
4 | CN[C@@H](C)C(=O)N[C@H](C(=O)N1CCC[C@H]1c1nc(C(=O)c2cccc(OCC(=O)NCCCNC(=O)C[C@@H]3N=C(c4ccc(Cl)cc4)c4c(sc(C)c4C)-n4c(C)nnc43)c2)cs1)C1CCCCC1 |  | Active
